Measurements from ChEMBL document CHEMBL5331093, “Identification of "dual-site"-binding diarylpyrimidines targeting both NNIBP and the NNRTI adjacent site of the HIV-1 reverse transcriptase” (Eur J Med Chem, 2023).

Test system: not listed separately
Assay: Selectivity index, ratio of CC50 cytotoxicity against human MT4 cells to EC50 for anti-HIV activity against NNRTI-resistant HIV-1 RES056 harboring RT K103N/Y181C double mutant infected in human MT4 cells
Type: toxicity, cell-based
Settings: read-out: Ratio CC50/EC50

Compound	selectivity ratio
Cc1cc(C#N)cc(C)c1Oc1nc(Nc2ccc(C#N)cc2)ncc1C#CC(=O)NCCN1CCOCC1	> 2
CCOC(=O)C#Cc1cnc(Nc2ccc(C#N)cc2)nc1Oc1c(C)cc(C#N)cc1C	260
Cc1cc(C#N)cc(C)c1Oc1nc(Nc2ccc(C#N)cc2)ncc1C#CC(=O)NCCN1CCN(C(=O)OC(C)(C)C)CC1	6
Cc1cc(C#N)cc(C)c1Oc1nc(Nc2ccc(C#N)cc2)ncc1C#CC(=O)NC1CC1	17

Test system: Human immunodeficiency virus 1
Assay: Anti-HIV activity against NNRTI-resistant HIV-1 harboring RT Y181C mutant infected in human MT4 cells assessed as inhibition of virus-induced cytopathic effect incubated for 5 days by MTT assay
Type: functional, organism-based
Settings: Human immunodeficiency virus 1, MT4, 120 h

Compound	EC50
CCOC(=O)C#Cc1cnc(Nc2ccc(C#N)cc2)nc1Oc1c(C)cc(C#N)cc1C	13.6 nM
Cc1cc(C#N)cc(C)c1Oc1nc(Nc2ccc(C#N)cc2)ncc1C#CC(=O)NC1CC1	36.9 nM
O=C1Nc2ccc(Cl)cc2[C@@](C#CC2CC2)(C(F)(F)F)O1 [EFAVIRENZ]	4.78 nM

Target: Human immunodeficiency virus type 1 reverse transcriptase (Human immunodeficiency virus 1, UniProt Q72547)
Assay: Inhibition of wild type recombinant HIV-1 reverse transcriptase assessed as reduction of biotin-dUTP incorporation into […] using ABTS as substrate incubated for 1 hrs by ELISA analysis
Settings: not given

Compound	IC50
CCOC(=O)C#Cc1cnc(Nc2ccc(C#N)cc2)nc1Oc1c(C)cc(C#N)cc1C	102 nM
Cc1cc(C#N)cc(C)c1Oc1nc(Nc2ccc(C#N)cc2)ncc1C#CC(=O)NC1CC1	52 nM

Test system: Human immunodeficiency virus 1
Assay: Anti-HIV activity against NNRTI-resistant HIV-1 harboring RT L100I mutant infected in human MT4 cells assessed as inhibition of virus-induced cytopathic effect incubated for 5 days by MTT assay
Type: functional, organism-based
Settings: Human immunodeficiency virus 1, MT4, 120 h

Compound	EC50
CCOC(=O)C#Cc1cnc(Nc2ccc(C#N)cc2)nc1Oc1c(C)cc(C#N)cc1C	10.9 nM
Cc1cc(C#N)cc(C)c1Oc1nc(Nc2ccc(C#N)cc2)ncc1C#CC(=O)NC1CC1	111 nM
O=C1Nc2ccc(Cl)cc2[C@@](C#CC2CC2)(C(F)(F)F)O1 [EFAVIRENZ]	33.4 nM
Cc1cc(C#N)cc(C)c1Oc1nc(Nc2ccc(C#N)cc2)nc(N)c1Br [ETRAVIRINE]	5.72 nM

Test system: Human immunodeficiency virus 1
Assay: Anti-HIV activity against NNRTI-resistant HIV-1 harboring RT F227L/V106A double mutant infected in human MT4 cells assessed as inhibition of virus-induced cytopathic effect incubated for 5 days by MTT assay
Type: functional, organism-based
Settings: Human immunodeficiency virus 1, MT4, 120 h

Compound	EC50
CCOC(=O)C#Cc1cnc(Nc2ccc(C#N)cc2)nc1Oc1c(C)cc(C#N)cc1C	15.9 nM
Cc1cc(C#N)cc(C)c1Oc1nc(Nc2ccc(C#N)cc2)ncc1C#CC(=O)NC1CC1	376 nM
O=C1Nc2ccc(Cl)cc2[C@@](C#CC2CC2)(C(F)(F)F)O1 [EFAVIRENZ]	154 nM
Cc1cc(C#N)cc(C)c1Oc1nc(Nc2ccc(C#N)cc2)nc(N)c1Br [ETRAVIRINE]	16.8 nM

Test system: Human immunodeficiency virus 1
Assay: Anti-HIV activity against NNRTI-resistant HIV-1 harboring RT E138K mutant infected in human MT4 cells assessed as inhibition of virus-induced cytopathic effect incubated for 5 days by MTT assay
Type: functional, organism-based
Settings: Human immunodeficiency virus 1, MT4, 120 h

Compound	EC50
CCOC(=O)C#Cc1cnc(Nc2ccc(C#N)cc2)nc1Oc1c(C)cc(C#N)cc1C	9.72 nM
Cc1cc(C#N)cc(C)c1Oc1nc(Nc2ccc(C#N)cc2)ncc1C#CC(=O)NC1CC1	14.9 nM
O=C1Nc2ccc(Cl)cc2[C@@](C#CC2CC2)(C(F)(F)F)O1 [EFAVIRENZ]	3.52 nM
Cc1cc(C#N)cc(C)c1Oc1nc(Nc2ccc(C#N)cc2)nc(N)c1Br [ETRAVIRINE]	5.32 nM

Test system: Human immunodeficiency virus 1
Assay: Anti-HIV activity against NNRTI-resistant HIV-1 harboring RT K103N mutant infected in human MT4 cells assessed as inhibition of virus-induced cytopathic effect incubated for 5 days by MTT assay
Type: functional, organism-based
Settings: Human immunodeficiency virus 1, MT4, 120 h

Compound	EC50
CCOC(=O)C#Cc1cnc(Nc2ccc(C#N)cc2)nc1Oc1c(C)cc(C#N)cc1C	5.2 nM
Cc1cc(C#N)cc(C)c1Oc1nc(Nc2ccc(C#N)cc2)ncc1C#CC(=O)NC1CC1	13.3 nM
Cc1cc(C#N)cc(C)c1Oc1nc(Nc2ccc(C#N)cc2)nc(N)c1Br [ETRAVIRINE]	2.78 nM

Test system: not listed separately
Assay: Resistance factor, ratio of EC50 for anti-HIV activity against NNRTI-resistant HIV-1 RES056 harboring RT K103N/Y181C double mutant infected in human MT4 cells to EC50 for anti-HIV activity against wild type HIV-1 IIIB infected in human MT4 cells
Type: functional
Settings: not given

Compound	Ratio EC50
Cc1cc(C#N)cc(C)c1Oc1nc(Nc2ccc(C#N)cc2)ncc1C#CC(=O)NCCN1CCOCC1	957
Cc1cc(C#N)cc(C)c1Oc1nc(Nc2ccc(C#N)cc2)ncc1C#CC(=O)NCCN1CCN(S(C)(=O)=O)CC1	70
CCOC(=O)C#Cc1cnc(Nc2ccc(C#N)cc2)nc1Oc1c(C)cc(C#N)cc1C	31
Cc1cc(C#N)cc(C)c1Oc1nc(Nc2ccc(C#N)cc2)ncc1C#CC(=O)NCCN1CCN(C(=O)OC(C)(C)C)CC1	219
Cc1cc(C#N)cc(C)c1Oc1nc(Nc2ccc(C#N)cc2)ncc1C#CC(=O)NC1CC1	66

Test system: Human immunodeficiency virus 1
Assay: Anti-HIV activity against NNRTI-resistant HIV-1 harboring RT Y188L mutant infected in human MT4 cells assessed as inhibition of virus-induced cytopathic effect incubated for 5 days by MTT assay
Type: functional, organism-based
Settings: Human immunodeficiency virus 1, MT4, 120 h

Compound	EC50
CCOC(=O)C#Cc1cnc(Nc2ccc(C#N)cc2)nc1Oc1c(C)cc(C#N)cc1C	10.3 nM
Cc1cc(C#N)cc(C)c1Oc1nc(Nc2ccc(C#N)cc2)ncc1C#CC(=O)NC1CC1	236 nM
O=C1Nc2ccc(Cl)cc2[C@@](C#CC2CC2)(C(F)(F)F)O1 [EFAVIRENZ]	199 nM

Test system: Human immunodeficiency virus 1
Assay: Anti-HIV activity against NNRTI-resistant HIV-1 RES056 harboring RT K103N/Y181C double mutant infected in human MT4 cells assessed as inhibition of virus-induced cytopathic effect incubated for 5 days by MTT assay
Type: functional, organism-based
Settings: Human immunodeficiency virus 1, RES056, MT4, 120 h

Compound	EC50
Cc1cc(C#N)cc(C)c1Oc1nc(Nc2ccc(C#N)cc2)ncc1C#CC(=O)NCCN1CCN(S(C)(=O)=O)CC1	774 nM
CCOC(=O)C#Cc1cnc(Nc2ccc(C#N)cc2)nc1Oc1c(C)cc(C#N)cc1C	133 nM
Cc1cc(C#N)cc(C)c1Oc1nc(Nc2ccc(C#N)cc2)ncc1C#CC(=O)NCCN1CCN(C(=O)OC(C)(C)C)CC1	4010 nM
Cc1cc(C#N)cc(C)c1Oc1nc(Nc2ccc(C#N)cc2)ncc1C#CC(=O)NC1CC1	313 nM
O=C1Nc2ccc(Cl)cc2[C@@](C#CC2CC2)(C(F)(F)F)O1 [EFAVIRENZ]	136 nM
Cc1cc(C#N)cc(C)c1Oc1nc(Nc2ccc(C#N)cc2)nc(N)c1Br [ETRAVIRINE]	23.4 nM

Test system: not listed separately
Assay: Selectivity index, ratio of CC50 cytotoxicity against human MT4 cells to EC50 for anti-HIV activity against wild type HIV-1 IIIB infected in human MT4 cells
Type: toxicity, cell-based
Settings: read-out: Ratio CC50/EC50

Compound	selectivity ratio
Cc1cc(C#N)cc(C)c1Oc1nc(Nc2ccc(C#N)cc2)ncc1C#CC(=O)NCCN1CCOCC1	> 2000
Cc1cc(C#N)cc(C)c1Oc1nc(Nc2ccc(C#N)cc2)ncc1C#CC(=O)NCCN1CCN(S(C)(=O)=O)CC1	440
CCOC(=O)C#Cc1cnc(Nc2ccc(C#N)cc2)nc1Oc1c(C)cc(C#N)cc1C	7940
Cc1cc(C#N)cc(C)c1Oc1nc(Nc2ccc(C#N)cc2)ncc1C#CC(=O)NCCN1CCN(C(=O)OC(C)(C)C)CC1	1220
Cc1cc(C#N)cc(C)c1Oc1nc(Nc2ccc(C#N)cc2)ncc1C#CC(=O)NC1CC1	1110

Test system: Human immunodeficiency virus 1
Assay: Anti-HIV activity against wild type HIV-1 IIIB infected in human MT4 cells assessed as inhibition of virus-induced cytopathic effect incubated for 5 days by MTT assay
Type: functional, organism-based
Settings: Human immunodeficiency virus 1, IIIB, MT4, 120 h

Compound	EC50
Cc1cc(C#N)cc(C)c1Oc1nc(Nc2ccc(C#N)cc2)ncc1C#CC(=O)NCCN1CCOCC1	120 nM
Cc1cc(C#N)cc(C)c1Oc1nc(Nc2ccc(C#N)cc2)ncc1C#CC(=O)NCCN1CCN(S(C)(=O)=O)CC1	11.1 nM
CCOC(=O)C#Cc1cnc(Nc2ccc(C#N)cc2)nc1Oc1c(C)cc(C#N)cc1C	4.35 nM
Cc1cc(C#N)cc(C)c1Oc1nc(Nc2ccc(C#N)cc2)ncc1C#CC(=O)NCCN1CCN(C(=O)OC(C)(C)C)CC1	18.3 nM
Cc1cc(C#N)cc(C)c1Oc1nc(Nc2ccc(C#N)cc2)ncc1C#CC(=O)NC1CC1	4.78 nM
O=C1Nc2ccc(Cl)cc2[C@@](C#CC2CC2)(C(F)(F)F)O1 [EFAVIRENZ]	2.36 nM

Test system: not listed separately
Assay: Cytotoxicity against human MT4 cells assessed as reduction in cell viability incubated for 5 days by MTT assay
Type: toxicity, cell-based
Settings: time 5 day

Compound	CC50 at 120 h
Cc1cc(C#N)cc(C)c1Oc1nc(Nc2ccc(C#N)cc2)ncc1C#CC(=O)NCCN1CCOCC1	> 240 µM
Cc1cc(C#N)cc(C)c1Oc1nc(Nc2ccc(C#N)cc2)ncc1C#CC(=O)NCCN1CCN(S(C)(=O)=O)CC1	4.89 µM
CCOC(=O)C#Cc1cnc(Nc2ccc(C#N)cc2)nc1Oc1c(C)cc(C#N)cc1C	34.5 µM
Cc1cc(C#N)cc(C)c1Oc1nc(Nc2ccc(C#N)cc2)ncc1C#CC(=O)NCCN1CCN(C(=O)OC(C)(C)C)CC1	22.4 µM
Cc1cc(C#N)cc(C)c1Oc1nc(Nc2ccc(C#N)cc2)ncc1C#CC(=O)NC1CC1	5.3 µM
O=C1Nc2ccc(Cl)cc2[C@@](C#CC2CC2)(C(F)(F)F)O1 [EFAVIRENZ]	> 6.34 µM
Cc1cc(C#N)cc(C)c1Oc1nc(Nc2ccc(C#N)cc2)nc(N)c1Br [ETRAVIRINE]	> 4.59 µM
